# Laboratory results reported in patent US11491109B2, “Pharmaceutical compositions for basic or neutral, low molecular weight compounds” (Hoffmann-La Roche Inc., priority 2017, dated 2022).
# Values joined by “and” are separate entries in the source; they are usually repeats but may differ in a detail not shown here. Equal entries are not always repeated. Where two headings read alike, the source gives them in different places.
# Assays:
# Assay type in all cases: physicochemical
# [1] = pKa via photometric titration (Roche internal data); settings: measured via photometric titration; basic model compounds
# [2] = Equilibrium solubility in EPO-solutions, 96-well SORESOS assay; settings: for Adjusted SE in EPO 0.1% / Adjusted SE in EPO 0.5% / Adjusted SE in EPO 1.0% / Adjusted SE in EPO 2.0% / Adjusted SE in EPO 3.0% / Adjusted SE in EPO 4.0% / Adjusted SE in EPO 5.0%: vs adjusted solubility in water at pH 6.0; for Non-adjusted SE in EPO 0.1% (in brackets) / Non-adjusted SE in EPO 0.5% (in brackets) / Non-adjusted SE in EPO 1.0% (in brackets) / Non-adjusted SE in EPO 2.0% (in brackets) / Non-adjusted SE in EPO 3.0% (in brackets) / Non-adjusted SE in EPO 4.0% (in brackets) / Non-adjusted SE in EPO 5.0% (in brackets): vs measured solubility in water; for course of solubility with polymer concentration: EPO 0.1-5%
# Experimental: Polymer solutions were prepared by dissolving EPO (0.1%, 0.5%, 1%, 2%, 3%, 4%, 5% (w/w)) in deionized water and adjusting all solutions to pH 6.0 by hydrochloric acid and sodium hydroxide at 25° C. Solutions were checked carefully for absence of particles.
# (§1) Solubility of compounds in EPO-solutions was determined by using a 96-well assay that was introduced to measure equilibrium solubility in parallel to a solid state analysis of the residual solid (SORESOS)^21 as described before.^22 In brief, APIs were dispensed using the powder-picking-method^23 in a 96-well flat bottom plate (Corning Inc., Durham, USA). Mixtures were agitated by head-over-head rotation for 48 h at room temperature after addition of stir bars and polymer solutions (150 μl). After mixing, the suspensions were carefully transferred into 96-well filter plates and the liquid and solid phase were separated by centrifugation. […] An isocratic flow (composition of the mobile phase is listed in Table 2) was applied for 0.3 min at a flow rate of 0.75 mL/min. […] Solid state analysis of residual solid was performed by X-ray powder diffraction (XRPD) using a STOE Stadi P Combi diffractometer with a primary Ge-monochromator (Cu Kα radiation), imaging plate position sensitive detector (IP-PSD), and a 96-well sample stage as described before.^21 The IP-PSD allowed simultaneous recording of the diffraction pattern on both sides of the primary beam which were summed up by the software STOE WinXPOW to reduce effects related to poor crystal orientation statistics. Samples were analyzed directly in the 96-well filter plate with an exposure time of 5 min per well.
# as §1, with “After addition of stir bars and polymer solutions (150 μl), mixtures” for “Mixtures”, “temperature.” for “temperature after addition of stir bars and polymer solutions (150 μl).”, “7)” for “2)”
# [3] = Drug solubility in water (aqueous solubility); settings: thermodynamic from solid
# [4] = pH of drug suspensions in water and in EPO-solutions; settings: EPO 0.5%, 2%, and 5%; solutions started at pH 6.0
# Experimental: All excipient solutions were adjusted to pH 6.0 before incubation and following equilibration, the residual solid was analyzed by means of XRPD. […] This extrapolation method was based on the Henderson-Hasselbalch equation and it is generally reliable when the experimental solubility value is within one pH unit difference.^25
# [5] = 24 h incubation, pH not adjusted, read-out: Solubility in water (standard deviation, n = 3)
# [6] = extrapolated to pH 6.0 by Henderson-Hasselbalch equation, read-out: Adjusted solubility at pH 6.0
Compound,pKa [1],Adjusted SE in EPO 0.1% [2],Non-adjusted SE in EPO 0.1% (in brackets) [2],Adjusted SE in EPO 0.5% [2],Non-adjusted SE in EPO 0.5% (in brackets) [2],Adjusted SE in EPO 1.0% [2],Non-adjusted SE in EPO 1.0% (in brackets) [2],Adjusted SE in EPO 2.0% [2],Non-adjusted SE in EPO 2.0% (in brackets) [2],Adjusted SE in EPO 3.0% [2],Non-adjusted SE in EPO 3.0% (in brackets) [2],Adjusted SE in EPO 4.0% [2],Non-adjusted SE in EPO 4.0% (in brackets) [2],Adjusted SE in EPO 5.0% [2],Non-adjusted SE in EPO 5.0% (in brackets) [2],"solubility at 24 h [3, 5] [µg/mL]","solubility at 24 h [3, 6] [µg/mL]","course of solubility with polymer concentration ([2]; 48 h, room temperature)",also measured
"C(=C\c1ccccc1)/CN1CCN(C(c2ccccc2)c2ccccc2)CC1 [CNZ, Cinnarizine]",7.8,2.7 (2.7),2.7 (2.7),10.3 (10.3),10.3 (10.3),15.3 (15.3),15.3 (15.3),29.3 (29.3),29.3 (29.3),37.3 (37.3),37.3 (37.3),39.0 (39.0),39.0 (39.0),37.0 (37.0),37.0 (37.0),1,1,–,–
"COc1ccccc1OCCNCC(O)COc1cccc2[nH]c3ccccc3c12 (stereo not drawn) [CVD, carvedilol]",8.1,1.7,24.3,6.7,94.9,6.9,–,10.7,152.3,11.1,157.4,10.6,150.9,11.7,165.9,–,71,–,"EPO concentration at which solubility reached a plateau ([2]; 48 h, room temperature): 2 % EPO (w/w)"
"CCOC(=O)C1=C(C)NC(C)=C(C(=O)OC)C1c1cccc(Cl)c1Cl (stereo not drawn) [FLP, felodipine]",–,–,–,–,–,–,–,–,–,–,–,–,–,–,–,–,–,increase of solubility with polymer concentration up to 5% EPO,"solubility ([3]; neutral model compounds, n = 3): 0.4 µg/mL"
"COC1=CC(=O)C[C@@H](C)[C@]12Oc1c(Cl)c(OC)cc(OC)c1C2=O [GFN, griseofulvin]",–,–,–,–,–,–,–,–,–,–,–,–,–,–,–,–,–,solubility decreased again and finally reached a kind of plateau,"EPO concentration of maximum solubility ([2]; 48 h, room temperature): 2 % EPO (w/w)"

# Second part, led by results:
pKa [1],Adjusted SE in EPO 0.1% [2],Non-adjusted SE in EPO 0.1% (in brackets) [2],Adjusted SE in EPO 0.5% [2],Non-adjusted SE in EPO 0.5% (in brackets) [2],Adjusted SE in EPO 1.0% [2],Non-adjusted SE in EPO 1.0% (in brackets) [2],Adjusted SE in EPO 2.0% [2],Non-adjusted SE in EPO 2.0% (in brackets) [2],Adjusted SE in EPO 3.0% [2],Non-adjusted SE in EPO 3.0% (in brackets) [2],Adjusted SE in EPO 4.0% [2],Non-adjusted SE in EPO 4.0% (in brackets) [2],Adjusted SE in EPO 5.0% [2],Non-adjusted SE in EPO 5.0% (in brackets) [2],"solubility at 24 h [3, 5] [µg/mL]","solubility at 24 h [3, 6] [µg/mL]",Compound,"course of solubility with polymer concentration ([2]; 48 h, room temperature)",also measured
9.2,0.2,7.2,1.0,37.3,1.5,58.3,2.4,–,3.6,141.5,4.4,172.5,4.8,186.2,63,2450,"OC(c1cc(C(F)(F)F)nc2c(C(F)(F)F)cccc12)C1CCCCN1 (stereo not drawn) [MFQ, mefloquine]",increase of solubility with polymer concentration up to 5% EPO,"solubility at 48 h ([2]; aqueous EPO polymer solution, pH 6, aqueous with cosolvent or surfactant or cyclodextrin, thermodynamic from solid, EPO 5%, 48 h, room temperature): 12000 µg/mL; pH after 48 h in EPO [4]: 6.3 and 6.4"
8.6,2.0,12.8,5.4,35.3,5.0,32.3,6.9,45.0,8.5,55.2,9.3,60.2,9.8,63.8,2,13,"O=c1[nH]c2ccccc2n1C1CCN(CCCC(c2ccc(F)cc2)c2ccc(F)cc2)CC1 [PMZ, Pimozide]",increase of solubility with polymer concentration up to 5% EPO,–
9.1,2.5,16.0,6.6,43.2,8.3,54.0,11.7,76.2,15.3,99.3,14.6,94.8,14.0,91.2,2,13,"CC(C)(C)c1ccc(C(O)CCCN2CCC(C(O)(c3ccccc3)c3ccccc3)CC2)cc1 (stereo not drawn) [TFD, terfenadine]",–,"EPO concentration at which solubility reached a plateau ([2]; 48 h, room temperature): 2 % EPO (w/w)"
9.7,–,–,–,–,–,–,–,–,–,–,–,–,–,–,–,–,"CC/C(=C(\c1ccccc1)c1ccc(OCCN(C)C)cc1)c1ccccc1 [TMX, tamoxifen]",–,–
